# Target: T1, MCAK (Kinesin-like protein KIF2C/MCAK) (Homo sapiens, UniProt Q99661)
# T1 sequence (Q99661 2-725): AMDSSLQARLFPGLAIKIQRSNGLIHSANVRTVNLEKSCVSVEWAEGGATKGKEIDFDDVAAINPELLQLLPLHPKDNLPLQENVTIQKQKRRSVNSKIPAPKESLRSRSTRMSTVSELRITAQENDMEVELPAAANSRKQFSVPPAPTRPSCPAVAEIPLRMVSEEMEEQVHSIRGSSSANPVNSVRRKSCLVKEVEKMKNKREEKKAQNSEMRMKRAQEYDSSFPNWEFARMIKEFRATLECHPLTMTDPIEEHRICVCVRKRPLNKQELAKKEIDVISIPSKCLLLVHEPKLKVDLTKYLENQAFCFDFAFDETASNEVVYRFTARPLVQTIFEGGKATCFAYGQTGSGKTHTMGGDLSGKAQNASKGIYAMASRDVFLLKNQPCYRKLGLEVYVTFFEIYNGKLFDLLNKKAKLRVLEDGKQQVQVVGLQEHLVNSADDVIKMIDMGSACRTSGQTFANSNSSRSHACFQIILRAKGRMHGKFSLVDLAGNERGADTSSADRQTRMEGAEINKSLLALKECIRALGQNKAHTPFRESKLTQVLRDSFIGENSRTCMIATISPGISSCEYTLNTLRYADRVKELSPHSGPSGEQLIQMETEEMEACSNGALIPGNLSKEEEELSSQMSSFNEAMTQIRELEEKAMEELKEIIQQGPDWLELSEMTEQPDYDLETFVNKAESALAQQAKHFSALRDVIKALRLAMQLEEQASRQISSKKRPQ
# Assay: displacement of MCAK from immobilized ligand […], Western blot
# Assay type: biochemical
# Conditions: MgATP in NP-40 lysis buffer, 15 min
smiles,measurement,value
Nc1ncnc2c1ncn2[C@@H]1O[C@H](COP(=O)(O)OP(=O)(O)OP(=O)(O)O)[C@@H](O)[C@H]1O [ATP],"displacement of MCAK from immobilized ligand 3, Western blot",MCAK binding to the immobilized drug could be inhibited by increasing concentrations of ATP
